Structures can show the parent of a compound that is named as a salt.
Key:
Solubility (qualitative) = assay type: physicochemical; conditions: for solubility in sodium hydroxide / alkaline solutions: aqueous sodium hydroxide or alkaline solutions; for solubility in hydrochloric acid: (diluted) hydrochloric acid
[1] = pH of the aqueous solution; assay type: physicochemical; conditions: dissolved in the previously-calculated amount of sodium hydroxide
male mice (strain CD) = test: Acute toxicity (LD50, Litchfield and Wilcoxon); assay type: in vivo; conditions: intraperitoneal, 8 days survey
Source text: The acute toxicity of these compounds has been determined on batches of male mice (strain CD) weighing about 20 g. They received the compounds to be tested at increasing doses either intraperitoneally or orally.
The animals are kept under survey for eight days. The deaths when present are numbered.
The average lethal dosage is graphically calculated according to the method of Litchfield and Wilcoxon.

## CCC(OC(c1ccc(N2CCCCC2)cc1)C(F)(F)F)C(=O)O (racemic) [Example XIV hydrochloride, dl-2-[1-(4-piperidinophenyl)-2-trifluoroethoxy]butyric acid]
Solubility (qualitative)
  solubility in water: freely soluble in water

## CCC(OC(c1ccc(N2CCOCC2)cc1)C(F)(F)F)C(=O)O (racemic) [Example XV hydrochloride, dl-2-[1-(4-morpholinophenyl)-2-trifluoroethoxy]butyric acid]
Solubility (qualitative)
  solubility in water: soluble in water

## CC(OC(c1ccccc1)C(F)(F)F)C(=O)O (racemic) [IV, dl-α-(2,2,2-trifluoro-1-phenylethoxy)propionic acid]
Solubility (qualitative)
  solubility in sodium hydroxide / alkaline solutions: dissolves in the stoichiometric amount of sodium hydroxide

## CCC(OC(c1ccc(Oc2ccc(Cl)cc2)cc1)C(F)(F)F)C(=O)O (racemic) [XII, dl-2-[1-(4-chlorophenoxyphenyl)-2,2,2-trifluoroethoxy]butyric acid]
Solubility (qualitative)
  solubility in sodium hydroxide / alkaline solutions: soluble in dilute sodium hydroxide solutions

## O=C(O)C(OC(c1ccccc1)C(F)(F)F)c1ccccc1 (racemic) [XVII, dl-2-(1-phenyl-2-trifluoroethoxy)phenyl acetic acid]
Solubility (qualitative)
  solubility in sodium hydroxide / alkaline solutions: soluble in the dilute solutions of sodium hydroxide

## CCC(OC(c1cccs1)C(F)(F)F)C(=O)O (racemic) [XVIII, dl-2-[1-(thienyl-2)-2,2,2-trifluoroethoxy]butyric acid]
Solubility (qualitative)
  solubility in sodium hydroxide / alkaline solutions: soluble in dilute solutions of sodium hydroxide

## CCC(OC(c1cccc2ccccc12)C(F)(F)F)C(=O)O (racemic) [XXI, Dl-2-[(naphtyl-1)-2,2,2-trifluoroethoxy]butyric acid]
Solubility (qualitative)
  solubility in sodium hydroxide / alkaline solutions: soluble in the previously-calculated amount of sodium hydroxide
[1]
  pH value of the aqueous solution: 7-8

## CCC(OC(c1ccc2ccccc2c1)C(F)(F)F)C(=O)O (racemic) [XXII, dl-2-[1-(naphtyl-2)-2,2,2-trifluoroethoxy]butyric acid]
Solubility (qualitative)
  solubility in sodium hydroxide / alkaline solutions: soluble in the previously-calculated amount of sodium hydroxide

## CCC(OC(c1ccc(N2CCCCCC2)cc1)C(F)(F)F)C(=O)O (racemic) [XXIV, dl-2-[[4-(1-hexamethyleneimino)phenyl]-2,2,2-trifluoroethoxy] butyric acid]
Solubility (qualitative)
  solubility in hydrochloric acid: insoluble in diluted hydrochloric acid
  solubility in sodium hydroxide / alkaline solutions: soluble in the dilute aqueous solutions of sodium hydroxide

## CCC(OC(c1ccc(N2CCCCCCC2)cc1)C(F)(F)F)C(=O)O (racemic) [XXV, dl-2-[[4-(heptamethyleneimino-1)phenyl-2,2,2-trifluoroethoxy)] butyric acid]
Solubility (qualitative)
  solubility in hydrochloric acid: insoluble in hydrochloric acid
  solubility in sodium hydroxide / alkaline solutions: soluble in the aqueous solutions of sodium hydroxide

## CCC(OC(c1ccc(Cl)cc1)C(F)(F)F)C(=O)O (single isomer, unassigned) [Example IX (acid, isomer β), α-[2,2,2-trifluoro-1-(p-chlorophenylethoxy]butyric acid (isomer β)]
Solubility (qualitative)
  solubility in sodium hydroxide / alkaline solutions: soluble in the previously-calculated amount of sodium hydroxide

## CCC(OC(c1ccccc1)C(F)(F)F)C(=O)O (stereo not drawn) [Example II, α-(2,2,2-trifluoro-1-phenyl-1-ethoxy)butyric acid]
Solubility (qualitative)
  solubility in sodium hydroxide / alkaline solutions: soluble in the previously-calculated amount of sodium hydroxide in aqueous solution

## CCC(OC(c1ccc(Cl)cc1)C(F)(F)F)C(=O)O (stereo not drawn) [Example V (1), α-[2,2,2-trifluoro-1-(4-chlorophenyl)ethoxy]butyric acid]
Solubility (qualitative)
  solubility in sodium hydroxide / alkaline solutions: soluble in an aqueous solution of sodium hydroxide

## CCC(OC(c1ccc(OC)cc1)C(F)(F)F)C(=O)O (stereo not drawn) [Example V (4-methoxyphenyl), α-[2,2,2-trifluoro-1-(4-methoxyphenyl)ethoxy]butyric acid]
Solubility (qualitative)
  solubility in sodium hydroxide / alkaline solutions: soluble in alkaline solutions
  solubility in water: insoluble in water

## CCC(OC(c1ccccc1)C(F)(F)F)C(=O)NO (stereo not drawn) [Example VI, α-(2,2,2-trifluoro-1-phenylethoxy)butyryl hydroxamic acid]
Solubility (qualitative)
  solubility in sodium hydroxide / alkaline solutions: soluble in the previously-calculated amount of sodium hydroxide

## CCC(OC(c1ccccc1)C(F)(F)F)C(=O)N1CCOCC1 (stereo not drawn) [Example VII, 4-[α-(2,2,2-trifluoro-1-phenylethoxy)butyryl]morpholine]
Solubility (qualitative); common organic solvents
  solubility in common organic solvents: soluble in the common organic solvents
Solubility (qualitative)
  solubility in water: insoluble in water

## CCC(OC(c1ccccc1)C(F)(F)F)C(=O)N1CCCCC1 (stereo not drawn) [VIII, 1-[α-(2,2,2-trifluoro-1-phenylethoxy)butyryl]piperidine]
Solubility (qualitative)
  solubility in water: insoluble in water

## dl-2-[1-(p-chlorophenylethoxy)-2,2,2-trifluoroethoxy] butyric acid
Male mice (strain CD)
  mean lethal dose (LD50): about 400 mg/kg

— patent publication US4288453A, “Derivatives of arylalkanoic acids, compositions and use” (Science Union et Cie, priority 1977, dated 1981)
